Reference: publication PMC10606064, “2-Aminothiazole-Flavonoid Hybrid Derivatives Binding to Tau Protein and Responsible for Antitumor Activity in Glioblastoma” (International Journal of Molecular Sciences, 2023)

Tests used:
[1] = system: U87 shCTRL cells; experiment: 2D random cell motility assay, U87 shCTRL; assay type: cell-based, human; conditions: 1.4 µM of compound 2, 1.6 µM of compound 9
Experimental: Cell motility was recorded by time-lapse videomicroscopy, as previously described. Briefly, cells were trypsinized and then seeded on Fibronectin pre-coated 24-well plates at 10^4 cells per well and allowed to adhere at 37 °C for 2 h in a 5% CO2 incubator. The cells were briefly rinsed in imaging medium (EMEM containing 10% FBS) to remove unattached cells before imaging. For conditions using compounds, agents were added to cells 15 min before launching the recording of the time-lapse series. Next, the plates were placed on an inverted wide-field Nikon microscope equipped with a 10× air objective (NA = 0.3) at 37 °C in 5% CO2. For all conditions, 61 frames of four fields were acquired using a CCD camera (Coolsnap HQ camera, Photometrics, Tucson, AZ, USA) driven by NIS elements AR 2.30 software (Nikon, Heidelberg, Germany). Migration tracks (n = 60–80 cells) were used to calculate total migration distance, distance to origin, velocity, and directional persistence of cell migration. Velocity was calculated as the total migration distance divided by 600 (600 min is total time of experiment). The distance to origin was determined as the net translocation between the initial and the final position. Directional persistence was calculated as the ratio of the distance to origin to that of the total distance migration.

[2] = target: T1, full-length human Tau (hTau40) (Homo sapiens, UniProt P10636); experiment: Tau oligomerization inhibition assay (heparin-induced, thioflavin S fluorescence); assay type: biochemical; conditions: 2 µM Tau, heparin-induced, ThS; buffer A pH 6.9; 25 °C per table footnote (37 °C in method); mean ± SD; read-out: Inhibition of Aggregation IC50
T1 construct: The full-length human Tau (hTau40) was expressed in a transformed E. coli BL21 (DE3) strain; made in house; host or cells: E. coli BL21 (DE3)
T1 sequence (P10636 1-441 isoform P10636-8): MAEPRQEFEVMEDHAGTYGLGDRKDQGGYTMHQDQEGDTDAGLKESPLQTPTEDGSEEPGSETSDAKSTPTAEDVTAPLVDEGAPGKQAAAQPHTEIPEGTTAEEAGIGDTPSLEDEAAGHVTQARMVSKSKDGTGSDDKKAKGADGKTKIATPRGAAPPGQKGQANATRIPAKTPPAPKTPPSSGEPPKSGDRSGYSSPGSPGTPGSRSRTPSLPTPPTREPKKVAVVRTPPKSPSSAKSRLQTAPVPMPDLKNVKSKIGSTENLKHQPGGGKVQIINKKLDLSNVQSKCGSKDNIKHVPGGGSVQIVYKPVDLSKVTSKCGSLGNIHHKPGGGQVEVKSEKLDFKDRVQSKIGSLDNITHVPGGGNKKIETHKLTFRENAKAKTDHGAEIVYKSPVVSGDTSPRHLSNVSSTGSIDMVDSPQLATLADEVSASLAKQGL
Experimental: Tau oligomerization inhibition assay was performed at 37 °C in 96-well plates by monitoring thioflavin-S fluorescence at 520 nm after excitation at 440 nm using a microplate reader (POLARstar Omega system, BMG Labtech, Paris, France). The Tau oligomerization process was induced by heparin. […] The plates were shaken at 200 rpm for 10 s before each measurement. The real value of fluorescence at the plateau was determined using SciDAVis v1.23 software. Data were fitted to the SciDAVis built-in ExpGrowth equation by means of nonlinear least-squares regression analysis. Y = Y0 + A × exp(x/t)(1)
The unscaled Levenberg–Marquardt algorithm was used, and initial values were given to Y0, A, and t. The final Y0 value of the model corresponds to the plateau value. The plateau values were then used to calculate the Tau oligomerization inhibition percentage. The IC50 for each compound was calculated from the scatter plot of Tau oligomerization inhibition (in percentage) as a function of log10 of compound concentration. The IC50 value (in µM) thus corresponds to ten raised to the power of […].

SMILES | decrease in distance to origin [1] | decrease in velocity [1] | IC50 [2]
Nc1nc2ccc3oc(-c4cccc(Oc5ccccc5)c4)cc(=O)c3c2s1 [Compound 2, 2-amino-7-(3-phenoxyphenyl)-9H-chromeno [6,5-d]thiazol-9-one] | 25% | 15% | 31.7 ± 7.3 µM
Nc1nc2ccc3oc(C(=O)O)cc(=O)c3c2s1 [Compound 5] |  |  | > 100 µM
